# According to patent publication US8575135B2 (Gilead Sciences, Inc., priority 2011, dated 2013):
# Where two headings read alike, the source gives them in different places.
# How the values were obtained:
# Test in all cases: microbe, parasite or virus in culture
# Conditions in all cases: Hepatitis C virus
# [1] = system: stable HCV 1a RLuc replicon cells (genotype 1a H77 replicon); format: cell-based
# Method: (§1) Evaluation of Cell-Based Anti-HCV Activity:
# (§2) Antiviral potency (EC50) was determined using a Renilla luciferase (RLuc)-based HCV replicon reporter assay. […] To perform the assay for genotype 2a (with M31 present in NS5A) or 2b, NS5A chimeric genotype 2a JFH-1 replicons that encodes a RLuc-Neo reporter and either genotype 2a J6 strain NS5A gene or genotype 2b MD2b-1 strain NS5A gene (both with M31 present) respectively, were either transiently transfected (t) into Huh-Lunet cells or were established as stably replicating replicon cells (s) is provided. Either cells were dispensed into 384-well plates for EC50 assays. To perform the assay for genotype 3 and 4, NS5A chimeric genotype 1b Con1 replicons that encodes a Pi-RLuc reporter and either genotype 3a S52 strain NS5A gene or genotype 4a ED43 strain NS5A gene respectively, were transiently transfected (t) into Huh-Lunet cells, which were subsequently dispensed into 384-well plates. Compounds were dissolved in DMSO at a concentration of 10 mM and diluted in DMSO either manually or using an automated pipeting instrument. Serially 3-fold diluted compounds were either manually mixed with cell culture media and added to the seeded cells or directly added to the cells using an automated instrument. […] 72 hours later, cells were lysed and Renilla luciferase activity quantified as recommended by the manufacturer (Promega-Madison, Wis.). Non-linear regression was performed to calculate EC50 values.
# [2] = system: stable HCV 2a JFH-1 Rluc replicon cells (L31 present in NS5A); format: cell-based
# [3] = system: NS5A chimeric genotype 1b Con1 replicon with genotype 3a S52 strain NS5A gene; format: cell-based, HCV
# Method: as §1, §2
# [4] = system: NS5A chimeric genotype 2a JFH-1 replicon with genotype 2a J6 strain NS5A gene (M31 present); format: cell-based, HCV
# Method: as §1, §2
# [5] = system: NS5A chimeric genotype 2a JFH-1 replicon with genotype 2b MD2b-1 strain NS5A gene (M31 present); format: cell-based, HCV
# Method: as §1, §2
# [6] = system: NS5A chimeric genotype 1b Con1 replicon with genotype 4a ED43 strain NS5A gene; format: cell-based, HCV
# [7] = system: 1a Pi-Rluc replicon with Q30R in genotype 1a NS5A; format: cell-based, HCV
# Method: as §2
# To determine the antiviral potency (EC50) against resistance mutants, resistance mutations, including M28T, Q30R, Q30H, L31M, and Y93C in genotype 1a NS5A and Y93H in genotype 1b NS5A, were introduced individually into either 1a Pi-Rluc or 1b Pi-Rluc replicons by site directed mutagenesis. Replicon RNA of each resistant mutant was transiently transfected into Huh-7-derived cured-51 cells and antiviral potency was determined on these transfected cells as described above.
SMILES,EC50 ([1]; read-out: 1a) [nM],EC50 ([1]; read-out: 1a (nM)) [nM],EC50 ([2]; read-out: 2a JFH) [nM],EC50 ([2]; read-out: 2a JFH (nM)) [nM],EC50 ([3]; read-out: 3a) [nM],EC50 ([3]; read-out: 3a (nM)) [nM],EC50 ([4]; read-out: 2a J6) [nM],EC50 ([4]; read-out: 2a J6 (s) (nM)) [nM],EC50 ([5]; read-out: 2b) [nM],EC50 ([5]; read-out: 2b (s) (nM)) [nM],EC50 ([6]; read-out: 4a) [nM],EC50 ([6]; read-out: 4a (s) (nM)) [nM],EC50 ([6]; read-out: 4a (t) (nM)) [nM],EC50 ([7]; read-out: 1a Q30R) [nM],EC50 ([7]; read-out: 1a Q30R (nM)) [nM],EC50 ([4]; read-out: 2a Jb (t) (nM)) [nM],EC50 ([5]; read-out: 2b (t) (nM)) [nM]
COC(=O)N[C@H](C(=O)N1CCC[C@H]1c1nc2c([nH]1)-c1cc3c(cc1CC2)-c1ccc(-c2cnc([C@@H]4CCCN4C(=O)[C@H](NC(=O)C4CC4)c4ccccc4)[nH]2)cc1CO3)C(C)C [Compound 494],< 1,0.037,< 1,0.005,< 1,0.005,< 1,0.098,< 1,0.017,< 1,0.031,0.017,< 1,0.118,–,–
COC[C@H]1C[C@@H](c2nc3ccc4cc5c(cc4c3[nH]2)OCc2cc(-c3cnc([C@@H]4CCCN4C(=O)[C@@H](NC(=O)OC)C(C)C)[nH]3)ccc2-5)N(C(=O)[C@@H](NC(=O)OC)C(C)C)C1 [Compound 495],< 1,0.021,< 1,0.008,< 1,0.024,< 1,1.02,< 1,0.541,< 1,0.014,0.014,< 1,0.201,0.28,0.135
"COC[C@H]1C[C@@H](c2ncc(-c3ccc4c(c3)COc3cc5c(cc3-4)CCc3nc([C@@H]4CCCN4C(=O)[C@@H](NC(=O)OC)C(C)C)[nH]c3-5)[nH]2)N(C(=O)[C@H](NC(=O)OC)c2ccccc2)C1 [Example OK, Methyl {(1R)-2-[(2S,4S)-2-(5-{2-[(2S)-1-{(2S)-2-[(methoxycarbonyl)amino]-3-methylbutanoyl}pyrrolidin-2-yl]-1,4,5,11-tetrahydroisochromeno[4′,3′:6,7]naphtho[1,2-d]imidazol-9-yl}-1H-imidazol-2-yl)-4-(methoxymethyl)pyrrolidin-1-yl]-2-oxo-1-phenylethyl}carbamate]",< 1,0.026,< 1,0.011,< 1,0.028,< 1,–,< 1,0.045,–,–,–,< 1,0.039,0.076,0.036
"COC[C@H]1C[C@@H](c2ncc(-c3ccc4c(c3)COc3cc5c(ccc6nc([C@@H]7C[C@@H]8C[C@@H]8N7C(=O)[C@@H](NC(=O)OC)C(C)C)[nH]c65)cc3-4)[nH]2)N(C(=O)[C@H](NC(=O)OC)c2ccccc2)C1 [Example OV, Methyl {(1R)-2-[(2S,4S)-2-(5-{2-[(1S,3S,5S)-2-{(2S)-2-[(methoxycarbonyl)amino]-3-methylbutanoyl}-2-azabicyclo[3.1.0]hex-3-yl]-1,11-dihydroisochromeno[4′,3′:6,7]naphtho[1,2-d]imidazol-9-yl}-1H-imidazol-2-yl)-4-(methoxymethyl)pyrrolidin-1-yl]-2-oxo-1-phenylethyl}carbamate]",< 1,0.01,< 1,0.007,< 1,0.013,< 1,–,< 1,–,–,–,–,< 1,0.031,0.113,0.046
"COC[C@H]1C[C@@H](c2ncc(-c3ccc4c(c3)COc3cc5c(ccc6nc([C@@H]7C[C@H]8C[C@H]8N7C(=O)[C@@H](NC(=O)OC)C(C)C)[nH]c65)cc3-4)[nH]2)N(C(=O)[C@H](NC(=O)OC)c2ccccc2)C1 [Example PR, methyl {(1R)-2-[(2S,4S)-2-(5-{2-[(1R,3S,5R)-2-{(2S)-2-[(methoxycarbonyl)amino]-3-methylbutanoyl}-2-azabicyclo[3.1.0]hex-3-yl]-1,11-dihydroisochromeno[4′,3′:6,7]naphtho[1,2-d]imidazol-9-yl}-1H-imidazol-2-yl)-4-(methoxymethyl)pyrrolidin-1-yl]-2-oxo-1-phenylethyl}carbamate]",< 1,0.013,< 1,0.007,< 1,0.018,< 1,–,< 1,–,–,–,–,< 1,0.045,0.022,0.028
"COC(=O)N[C@H](C(=O)N1[C@@H](C)CC[C@H]1c1nc2ccc3cc4c(cc3c2[nH]1)OCc1cc(-c2cnc([C@@H]3C[C@H](C)CN3C(=O)[C@H](NC(=O)OC)c3ccccc3)[nH]2)ccc1-4)C(C)C [Example QF, Methyl {(2S)-1-[(2S,5S)-2-(9-{2-[(2S,4S)-1-{(2R)-2-[(methoxycarbonyl)amino]-2-phenylacetyl}-4-methylpyrrolidin-2-yl]-1H-imidazol-5-yl}-1,11-dihydroisochromeno[4′,3′:6,7]naphtho[1,2-d]imidazol-2-yl)-5-methylpyrrolidin-1-yl]-3-methyl-1-oxobutan-2-yl}carbamate]",< 1,0.008,< 1,0.004,< 1,0.02,< 1,–,< 1,0.011,–,–,–,< 1,0.032,0.053,0.015
"COC(=O)N[C@H](C(=O)N1C[C@@H](C)C[C@H]1c1ncc(-c2ccc3c(c2)COc2cc4c(ccc5nc([C@@H]6CC[C@H](C)N6C(=O)[C@@H](NC(=O)OC)C(C)C)[nH]c54)cc2-3)[nH]1)C(C)C [Example QG, Methyl {(2S)-1-[(2S,5S)-2-(9-{2-[(2S,4S)-1-{(2S)-2-[(methoxycarbonyl)amino]-3-methylbutanoyl}-4-methylpyrrolidin-2-yl]-1H-imidazol-5-yl}-1,11-dihydroisochromeno[4′,3′:6,7]naphtho[1,2-d]imidazol-2-yl)-5-methylpyrrolidin-1-yl]-3-methyl-1-oxobutan-2-yl}carbamate]",< 1,0.005,< 1,0.004,< 1,0.016,< 1,–,< 1,0.043,–,–,–,< 1,0.071,0.551,0.065
"COC(=O)N[C@H](C(=O)N1[C@@H](C)CC[C@H]1c1nc2ccc3cc4c(cc3c2[nH]1)OCc1cc(-c2cnc([C@@H]3C[C@H](C)CN3C(=O)[C@@H](NC(=O)OC)[C@@H](C)OC)[nH]2)ccc1-4)C(C)C [Example QH, Methyl {(2S)-1-[(2S,5S)-2-(9-{2-[(2S,4S)-1-{(2S,3R)-3-methoxy-2-[(methoxycarbonyl)amino]butanoyl}-4-methylpyrrolidin-2-yl]-1H-imidazol-5-yl}-1,11-dihydroisochromeno[4′,3′:6,7]naphtho[1,2-d]imidazol-2-yl)-5-methylpyrrolidin-1-yl]-3-methyl-1-oxobutan-2-yl}carbamate]",< 1,0.007,< 1,0.005,< 1,0.02,< 1,–,< 1,0.049,–,–,–,< 1,0.051,0.182,0.051
